From article PMC7822874, “Chemoprotective antimalarials identified through quantitative high-throughput screening of Plasmodium blood and liver stage parasites” (Scientific Reports, 2021)
Where two headings read alike, the source gives them in different places.

What was measured:
[1] = test system: T1, Plasmodium falciparum Dd2-attB (parental line), asexual blood stages; assay: microbe, parasite or virus in culture; design: species or system P. falciparum Dd2-attB in human erythrocytes; SYBR Green-I proliferation assay, Dd2-attB parental line, asexual blood stages; conditions: Plasmodium falciparum, DD2, Erythrocyte, 72 h, read-out: Calculated / Average Log AC50 (M), mean of replicates, 72 h (converted)
T1 construct: Dd2-attB, the isogenic parental line

[2] = test system: P. berghei-ANKA-GFP-LucCON liver stage parasites in HepG2-A16-CD81EGFP cells; assay: P. berghei liver stage Pb-Luc assay, Method 1 (UCSD, 1536-well); as to Pb-Luc signal, 1 uM, repeat 1: reference of the scale not given here; as to Pb-Luc signal, 1 uM, repeat 2: reference of the scale not given here; as to Pb-Luc signal, 1 uM, repeat 3: reference of the scale not given here; as to Pb-Luc signal, 3 uM, repeat 1: reference of the scale not given here; as to Pb-Luc signal, 3 uM, repeat 2: reference of the scale not given here; as to Pb-Luc signal, 3 uM, repeat 3: reference of the scale not given here; assay type: cell-based, Plasmodium berghei; conditions: for activity at 1 µM / activity at 3 µM: 48 h, average of 2 wells, 1536-well plate; for activity at 1 µM: nominal 1 uM (10 mM stock), […] for 15 mM, 1.2 uM for 12 mM, 2 uM for 20 mM stock; for activity at 3 µM: nominal 3 uM (10 mM stock), 4.5 uM for 15 mM, 3.6 uM for 12 mM, 6 uM for 20 mM stock; for Max Resp (signal direction of the dose response): Decrease = decreasing P. berghei viability with dose, Increase = increasing signal, Inactive = no dose response
[3] = in vitro; conditions: human, n = 1
[4] = test system: luciferase-expressing P. berghei liver stage parasites in HepG2 cells; assay: Inhibition of liver-stage development assay (ILSDA), Method 2 (WRAIR, 96-well); assay type: cell-based, Plasmodium berghei; conditions: for AC50: Plasmodium berghei, HepG2, Method 2; for Activity direction (Decrease / Inactive): P. berghei liver stage, Method 2, dose response
[5] = test system: Plasmodium falciparum Dd2 asexual blood stage parasites; assay: microbe, parasite or virus in culture; design: species or system Plasmodium falciparum Dd2 in human erythrocytes; single determination (one 11-point concentration-response curve); conditions: Plasmodium falciparum, DD2, Erythrocyte, 72 h; read-out: AC50
[6] = test system: HepG2-A16-CD81EGFP cells; conditions: average of 2 wells; for HepG2 viability signal, 3 uM, repeat 2: nominal 3 uM (10 mM stock), 4.5 uM for 15 mM, 3.6 uM for 12 mM, 6 uM for 20 mM stock
[7] = in vitro; conditions: human, HepG2-A16-CD81EGFP cells, uninfected
[8] = Plasmodium berghei, repeat 1, read-out: Pb-Luc signal, 1 uM, repeat 1
[9] = Plasmodium berghei, repeat 2, read-out: Pb-Luc signal, 1 uM, repeat 2
[10] = Plasmodium berghei, repeat 3, read-out: Pb-Luc signal, 1 uM, repeat 3
[11] = Plasmodium berghei, repeat 1, read-out: Pb-Luc signal, 3 uM, repeat 1
[12] = Plasmodium berghei, repeat 2, read-out: Pb-Luc signal, 3 uM, repeat 2
[13] = Plasmodium berghei, repeat 3, read-out: Pb-Luc signal, 3 uM, repeat 3
[14] = Plasmodium berghei, Method 1, Hill fit, 50% of maximum activity response, read-out: AC50
[15] = Plasmodium berghei, Method 1, log10 of molar AC50 from Hill fit, read-out: Log AC50 (converted)
[16] = nominal 1 uM (10 mM stock), […] for 15 mM, 1.2 uM for 12 mM, 2 uM for 20 mM stock

O=C(O)c1ccc(O)c2ncc(-c3n[nH]nc3-c3ccccc3)cc12 [NCGC00241764-02]
AC50 [1]: 4.66e-06 M

O=C(O)c1ccnc2c(O)cc(N3CCOCC3)cc12 [NCGC00247744-02]
AC50 [1]: 1.5e-07 M

CN1CCC(N2CCCC(CNC(=O)c3cccc(-c4cc(O)c5ncccc5c4)c3)C2)CC1 (stereo not shown) [NCGC00247748-01]
AC50 [1]: 1.85e-05 M

CN(C)CCCNC(=O)c1ccccc1-c1cc(O)c2ncccc2c1 [NCGC00247753-01]
AC50 [1]: 1.47e-05 M

CN(C)CCCNC(=O)c1cccc(-c2cc(O)c3nccc(C(=O)O)c3c2)c1 [NCGC00247762-01]
AC50 [1]: 2.25e-05 M

CN(C)CCCN1CCCN(C(=O)c2cccc(-c3cc(O)c4ncccc4c3)c2)C1 [NCGC00247763-01]
AC50 [1]: 1.93e-05 M

COC(=O)c1ccnc(-c2cc(C(=O)NCCc3ccccc3)ccn2)c1 [NCGC00351541-01]
AC50 [1]: 2.16e-05 M

CCOC(=O)c1ccnc(CNCC(=O)N(CC)CCN(C)C)c1 [NCGC00371443-05]
AC50 [1]: 1.47e-07 M

Cn1cnc(-c2nccc3c(O)nc(OCCCC(F)(F)F)nc23)c1 [NCGC00381768-02]
AC50 [1]: 2.08e-05 M

CCc1c(C)[nH]c2c(-c3cnn(-c4cc(CO)ccn4)c3)cnn2c1=O [NCGC00387307-02]
AC50 [1]: 4.84e-08 M

CC1=C[C@@H](CNCc2cccnc2)[C@H](C(C)C)C[C@H]1Cc1nnc(-c2ccc([N+](=O)[O-])cc2)o1 [NCGC00394797-01]
activity at 1 µM [2, 8]: 72% | activity at 1 µM [2, 9]: 75% | activity at 1 µM [2, 10]: 71.6% | activity at 3 µM [2, 11]: 23.8% | activity at 3 µM [2, 12]: 19.3% | activity at 3 µM [2, 13]: 23.7% | AC50 [2, 14]: 1580 nM | AC50 [2, 15]: 1580 nM | CC50 at 48 h ([3]; hepg2): 24300 nM | Max Resp (signal direction of the dose response) ([4]; Method 2, Decrease = decreasing P. berghei viability with dose, Increase = increasing signal, Inactive = no dose response): Decrease | AC50 ([4]; Hill fit, 50% of maximum activity response, read-out: AC50): 562 nM | AC50 ([4]; log10 of molar AC50 from Hill fit, read-out: Log AC50 (converted)): 562 nM | AC50 [5]: 5310 nM | HepG2 viability signal, 1 uM, repeat 1 ([6]; nominal 1 uM (10 mM stock), […] for 15 mM, 1.2 uM for 12 mM, 2 uM for 20 mM stock, repeat 1): 104.31% | HepG2 viability signal, 1 uM, repeat 2 [6, 16]: 102.23% | HepG2 viability signal, 3 uM, repeat 2 [6]: 86.98%

CC(C)c1ccc(CC(=O)N2CCCc3ncc(C(=O)Nc4cccnc4)cc32)cc1 [NCGC00420003-01]
Max Resp (signal direction of the dose response) ([2]; Method 1): Inactive | activity at 1 µM [2, 8]: 24.7% | activity at 1 µM [2, 9]: 4.89% | activity at 1 µM [2, 10]: 35.4% | activity at 3 µM [2, 11]: 3.66% | activity at 3 µM [2, 12]: 2.01% | activity at 3 µM [2, 13]: 4.19% | viability at 48 h, 1 µM [7]: 99% | viability at 48 h, 3 µM [7]: 35.6% | CC50 at 48 h ([3]; HepG2 cells): 19800 nM | Activity direction (Decrease / Inactive) [4]: Inactive | AC50 [5]: 863 nM | HepG2 viability signal, 1 uM, repeat 2 [6, 16]: 94.19% | HepG2 viability signal, 3 uM, repeat 2 [6]: 54.54%

Cc1nn2c(c1-c1ccccc1-c1ccccc1)N(CC1CC1)CCC2 [NCGC00420435-01]
activity at 1 µM [2, 8]: 52.9% | activity at 1 µM [2, 9]: 51.5% | activity at 1 µM [2, 10]: 66.1% | activity at 3 µM [2, 11]: 2.42% | activity at 3 µM [2, 12]: 7.19% | activity at 3 µM [2, 13]: 5.92% | AC50 [2, 14]: 1580 nM | AC50 [2, 15]: 1580 nM | viability at 48 h, 1 µM [7]: 102% | viability at 48 h, 3 µM [7]: 53.6% | CC50 at 48 h ([3]; HepG2 cells): 22200 nM | Activity direction (Decrease / Inactive) [4]: Inactive | AC50 [5]: 968 nM | HepG2 viability signal, 1 uM, repeat 2 [6, 16]: 101.46% | HepG2 viability signal, 3 uM, repeat 2 [6]: 45.92%

Cc1nn2c(c1-c1ccccc1-c1ccccc1)N(CCC(C)C)CCC2 [NCGC00420437-01]
Max Resp (signal direction of the dose response) ([2]; Method 1): Decrease | AC50 ([2]; Method 1, Hill fit, 50% of maximum activity response, read-out: AC50): 1120 nM | Log AC50 (M) ([2]; Method 1, log10 of molar AC50 from Hill fit): -5.950 M | activity at 1 µM [2, 8]: 19.7% | activity at 1 µM [2, 9]: 20.4% | activity at 1 µM [2, 10]: 5.15% | activity at 3 µM [2, 11]: 4.48% | activity at 3 µM [2, 12]: 7.19% | activity at 3 µM [2, 13]: 3.33% | AC50 [2, 14]: 1000 nM | AC50 [2, 15]: 1000 nM | viability at 48 h, 1 µM [7]: 104% | viability at 48 h, 3 µM [7]: 10.8% | CC50 at 48 h ([3]; HepG2 cells): 19800 nM | Activity direction (Decrease / Inactive) [4]: Inactive | AC50 [5]: 243 nM | HepG2 viability signal, 1 uM, repeat 2 [6, 16]: 106.23% | HepG2 viability signal, 3 uM, repeat 2 [6]: 19.77%
